Columns and labels:
KO-52 cells = experiment: Proliferation assay, spheroid-like growth, KO-52 (MLL wildtype control cell line); assay type: cell-based, human; conditions: Homo sapiens, 192 h, KO-52 control cells, 8 days, confluence as measure of spheroid size; read-out: spheroid assay_OneTime KO-52 IC50
Procedure, shortened: (§1)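 Cells seeded in ultra-low attachment round-bottom wells (200 MOLM14 or 300 KO-52 per well) with compound at several concentrations, DMSO 0.3%, grown 8 days at 37° C, 5% CO2. Spheroid size taken as confluence from day-8 live-cell images; IC50 from variable-slope fit, DMSO as 0% and high-dose reference compound as 100% effect.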

MOLM14 cells = experiment: Proliferation assay, spheroid-like growth, MOLM14 (MLL-AF9 rearranged); assay type: cell-based, human; conditions: Homo sapiens, MOLM-14, 192 h, 8 days, confluence as measure of spheroid size, read-out: spheroid assay_OneTime MOLM14 IC50
Procedure, shortened: as §1

[1] = molecular target: T1, menin/MLL (terbium chelate-labeled menin, FITC-MBM1 peptide) (Homo sapiens, UniProt O00255, T541A); experiment: Menin/MLL homogenous time-resolved fluorescence (HTRF) assay; assay type: binding; conditions: 30 min incubation
T1 construct: Menin (a.a 1-610-6xhis tag)
T1 sequence (O00255 with tags, fused parts or gaps T541A): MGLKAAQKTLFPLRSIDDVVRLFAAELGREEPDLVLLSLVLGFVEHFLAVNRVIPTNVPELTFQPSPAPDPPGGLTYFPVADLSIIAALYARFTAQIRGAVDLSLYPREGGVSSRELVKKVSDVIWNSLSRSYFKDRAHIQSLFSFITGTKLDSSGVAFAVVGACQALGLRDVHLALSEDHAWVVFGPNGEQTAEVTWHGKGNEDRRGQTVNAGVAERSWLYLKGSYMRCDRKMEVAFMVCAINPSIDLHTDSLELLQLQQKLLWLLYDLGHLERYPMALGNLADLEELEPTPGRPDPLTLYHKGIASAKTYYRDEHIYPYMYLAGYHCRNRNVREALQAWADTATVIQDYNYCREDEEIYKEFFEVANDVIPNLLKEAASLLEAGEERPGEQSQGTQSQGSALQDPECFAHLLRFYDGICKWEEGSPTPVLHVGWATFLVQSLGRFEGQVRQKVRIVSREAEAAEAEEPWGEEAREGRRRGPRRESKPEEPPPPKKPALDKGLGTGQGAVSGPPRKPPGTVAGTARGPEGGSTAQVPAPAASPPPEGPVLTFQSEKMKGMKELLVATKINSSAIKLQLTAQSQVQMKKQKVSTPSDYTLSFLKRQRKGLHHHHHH
Procedure, shortened: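 Terbium-labeled menin (aa 1-610, His-tagged; 200 pM) preincubated 30 min with compound, then 75 nM FITC-MBM1 peptide added for 15 min at ambient temperature in pH 7.5 Tris buffer, 0.5% DMSO. HTRF ratio 520/490 nm converted to % inhibition. IC50 came from an 11-point four-fold titration from 10 μM, floor 0.1 nM.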

| SMILES | IC50 (MOLM14 cells) | IC50 [1] | IC50 (KO-52 cells) |
| --- | --- | --- | --- |
| CC(C)[C@H]([C@H]1C[C@@H](NC(=O)CC#N)C1)N1CC2(CCN(c3ncnnc3Oc3ccc(F)cc3-c3cncnc3C3CC3)C2)C1 (single isomer, unassigned) [Compound 298] | 0.006 µM | 0.0001 µM | 9.32 µM |
| CC(C)[C@H]([C@H]1C[C@@H](NC(=O)C(C)(C)C)C1)N1CC2(CCN(c3ncnnc3Oc3ccc(F)cc3-c3cncnc3C3CC3)C2)C1 (single isomer, unassigned) [Compound 300] | 0.17 µM | 0.0003 µM | 8.19 µM |
| CC(C)[C@H]([C@H]1C[C@@H](NC(=O)C2CC2)C1)N1CC2(CCN(c3ncnnc3Oc3ccc(F)cc3-n3ncnc3C3CC3)C2)C1 (single isomer, unassigned) [Compound 308] | 0.07 µM | 0.0002 µM | 4.57 µM |
| CC(C)[C@H]([C@H]1C[C@]2(CCC(=O)N2)C1)N1CC2(CCN(c3ncnnc3Oc3ccc(F)cc3-c3cncnc3C3CC3)C2)C1 (single isomer, unassigned) [Compound 313] | > 0.94 µM | 0.0434 µM | > 15 µM |
| CC(C)[C@H]([C@H]1C[C@@H](N2CC3(CCN(C)C3=O)C2)C1)N1CC2(CCN(c3ncnnc3Oc3ccc(F)cc3-c3cncnc3C3CC3)C2)C1 (single isomer, unassigned) [Compound 315] | 0.018 µM | 0.0001 µM | 1.96 µM |
| CC(C)[C@H]([C@H]1C[C@@H](N2CC3(COC(=O)N3)C2)C1)N1CC2(CCN(c3ncnnc3Oc3ccc(F)cc3-c3cncnc3C3CC3)C2)C1 (single isomer, unassigned) [Compound 318] | 0.026 µM | 0.0001 µM | 6.9 µM |
| CC(C)[C@H]([C@H]1C[C@]2(COC(=O)N2)C1)N1CC2(CCN(c3ncnnc3Oc3ccc(F)cc3-c3cncnc3C3CC3)C2)C1 (single isomer, unassigned) [Compound 319] | > 0.94 µM | 0.0237 µM | > 15 µM |
| CC(C)[C@@H]([C@H]1C[C@]2(COC(=O)N2)C1)N1CC2(CCN(c3ncnnc3Oc3ccc(F)cc3-c3cncnc3C3CC3)C2)C1 (single isomer, unassigned) [Compound 320] | 0.028 µM | 0.0001 µM | 4.6 µM |
| CC(C)[C@H]([C@H]1C[C@@H](N2CCC3(COC3)C2)C1)N1CC2(CCN(c3ncnnc3Oc3ccc(F)cc3-c3cncnc3C3CC3)C2)C1 (single isomer, unassigned) [Compound 325] | 0.004 µM | 0.0001 µM | 4.98 µM |
| CO[C@H]1CCN([C@H]2C[C@@H](C(C(C)C)N3CC4(CCN(c5ncnnc5Oc5ccc(F)cc5-c5nnccc5C5CC5)C4)C3)C2)C1 (single isomer, unassigned) [Compound 331] | 0.003 µM | 0.0002 µM | 2.85 µM |
| CC(C)[C@H](C1CCN(CC2COC2)CC1)N1CC2(CCN(c3ncnnc3Oc3ccc(F)cc3-c3cnc(C#N)nc3C3CC3)C2)C1 (single isomer, unassigned) [Compound 333] | 0.038 µM | 0.0001 µM | 0.82 µM |
| Fc1ccc(Oc2nncnc2N2CCC3(C2)CN([C@H](C2CCN(CC4COC4)CC2)C24CC(C2)C4)C3)c(-c2cncnc2C2CC2)c1 (single isomer, unassigned) [Compound 335] | 0.03 µM | 0.0002 µM | 3.24 µM |

The next lines start with results.

| IC50 (MOLM14 cells) | IC50 [1] | SMILES | IC50 (KO-52 cells) |
| --- | --- | --- | --- |
| 0.034 µM | 0.0002 µM | COCC(=O)N[C@H]1C[C@@H]([C@@H](C(C)C)N2CC3(CCN(c4ncnnc4Oc4ccc(F)cc4-c4cncnc4C4CC4)C3)C2)C1 (single isomer, unassigned) [Compound 299] | 8.35 µM |
| 0.033 µM | 0.0002 µM | CC(C)[C@H]([C@H]1C[C@@H](NC(=O)C2(F)CC2)C1)N1CC2(CCN(c3ncnnc3Oc3ccc(F)cc3-c3cncnc3C3CC3)C2)C1 (single isomer, unassigned) [Compound 301] | 2.5 µM |
| 0.007 µM | 0.0003 µM | CC(C)[C@H]([C@H]1C[C@@H](NC(=O)C2CC2)C1)N1CC2(CCN(c3ncnnc3Oc3ccc(F)cc3-c3cncnc3C3CC3)C2)C1 (single isomer, unassigned) [Compound 303] | 4.53 µM |
| 0.032 µM | 0.0001 µM | CC(C)[C@H]([C@H]1C[C@@H](NC(=O)C2CC2)C1)N1CC2(CCN(c3ncnnc3Oc3ccc(F)cc3-c3nnccc3C3CC3)C2)C1 (single isomer, unassigned) [Compound 304] | 12.1 µM |
| 0.017 µM | 0.0002 µM | CC(C)[C@H]([C@H]1C[C@@H](NC(=O)C2(F)CC2)C1)N1CC2(CCN(c3ncnnc3Oc3ccc(F)cc3-c3nnccc3C3CC3)C2)C1 (single isomer, unassigned) [Compound 305] | 5.78 µM |
| 0.056 µM | 0.0003 µM | CC(=O)N[C@H]1C[C@@H]([C@@H](C(C)C)N2CC3(CCN(c4ncnnc4Oc4ccc(F)cc4-c4nncnc4C4CC4)C3)C2)C1 (single isomer, unassigned) [Compound 306] | 6.46 µM |
| > 0.94 µM | 0.0007 µM | CC(C)[C@H]([C@H]1C[C@@H](NC(=O)C2CC2)C1)N1CC2(CCN(c3ncnnc3Oc3ccc(F)cc3-c3nncn3C3CC3)C2)C1 (single isomer, unassigned) [Compound 307] | > 15 µM |
| 0.022 µM | 0.0002 µM | CC(C)[C@H]([C@H]1C[C@@H](NC(=O)C2CC2)C1)N1CC2(CCN(c3ncnnc3Oc3ccc(F)cc3-c3n[nH]c(=O)cc3C3CC3)C2)C1 (single isomer, unassigned) [Compound 309] | 7.39 µM |
| 0.052 µM | 0.0003 µM | CC(C)[C@H]([C@H]1C[C@@H](NC(=O)C2(F)CC2)C1)N1CC2(CCN(c3ncnnc3Oc3ccc(F)cc3-c3n[nH]c(=O)cc3C3CC3)C2)C1 (single isomer, unassigned) [Compound 311] | 9.99 µM |
| 0.005 µM | 0.0002 µM | CC(=O)N[C@H]1C[C@@H]([C@@H](C(C)C)N2CC3(CCN(c4ncnnc4Oc4ccc(F)cc4-c4cnccc4C4CC4)C3)C2)C1 (single isomer, unassigned) [Compound 312] | 1.27 µM |
| > 0.94 µM | 0.0911 µM | CC(C)[C@H]([C@H]1C[C@]2(COC(=O)N2)C1)N1CC2(CCN(c3ncnnc3Oc3ccc(F)cc3-c3ncccc3C3CC3)C2)C1 (single isomer, unassigned) [Compound 321] | > 15 µM |
| 0.03 µM | 0.0003 µM | CC(C)[C@@H]([C@H]1C[C@]2(COC(=O)N2)C1)N1CC2(CCN(c3ncnnc3Oc3ccc(F)cc3-c3ncccc3C3CC3)C2)C1 (single isomer, unassigned) [Compound 322] | > 15 µM |
| > 0.94 µM | 0.117 µM | CC(C)[C@@H]([C@H]1C[C@]2(COC(=O)N2)C1)N1CC2(CCN(c3ncnnc3Oc3ccc(F)cc3-c3nnccc3C3CC3)C2)C1 (single isomer, unassigned) [Compound 324] | > 15 µM |
| 0.13 µM | 0.0004 µM | COC1(C(=O)N[C@H]2C[C@@H]([C@@H](C(C)C)N3CC4(CCN(c5ncnnc5Oc5ccc(F)cc5-c5cncnc5C5CC5)C4)C3)C2)CC1 (single isomer, unassigned) [Compound 330] | 5.9 µM |
